Positions of bridges follow the written chain, without caps; N, C: chain ends. Non-standard residues stand in square brackets, D forms with d. Residues, ends and D or L forms follow the SMILES beside them. Phe(4-I) = N[C@@H](Cc1ccc(I)cc1)C(=O)O; 1Nal = N[C@@H](Cc1cccc2ccccc12)C(=O)O Some results are limits rather than exact numbers.

Assay in all cases: cell-based
One test concerns the target hNav1.5 (Homo sapiens, UniProt Q14524).
For a further test, the target named is hNav1.3 (Homo sapiens, UniProt Q9NY46). It counts as cell-based. As to conditions: Nav1.3 Use IC50.
The target of the next test is hNav1.7 (Homo sapiens, UniProt Q15858). The settings on record: Nav1.7 Use IC50.

hNav1.3, sequence (Q9NY46 whole entry, looked up): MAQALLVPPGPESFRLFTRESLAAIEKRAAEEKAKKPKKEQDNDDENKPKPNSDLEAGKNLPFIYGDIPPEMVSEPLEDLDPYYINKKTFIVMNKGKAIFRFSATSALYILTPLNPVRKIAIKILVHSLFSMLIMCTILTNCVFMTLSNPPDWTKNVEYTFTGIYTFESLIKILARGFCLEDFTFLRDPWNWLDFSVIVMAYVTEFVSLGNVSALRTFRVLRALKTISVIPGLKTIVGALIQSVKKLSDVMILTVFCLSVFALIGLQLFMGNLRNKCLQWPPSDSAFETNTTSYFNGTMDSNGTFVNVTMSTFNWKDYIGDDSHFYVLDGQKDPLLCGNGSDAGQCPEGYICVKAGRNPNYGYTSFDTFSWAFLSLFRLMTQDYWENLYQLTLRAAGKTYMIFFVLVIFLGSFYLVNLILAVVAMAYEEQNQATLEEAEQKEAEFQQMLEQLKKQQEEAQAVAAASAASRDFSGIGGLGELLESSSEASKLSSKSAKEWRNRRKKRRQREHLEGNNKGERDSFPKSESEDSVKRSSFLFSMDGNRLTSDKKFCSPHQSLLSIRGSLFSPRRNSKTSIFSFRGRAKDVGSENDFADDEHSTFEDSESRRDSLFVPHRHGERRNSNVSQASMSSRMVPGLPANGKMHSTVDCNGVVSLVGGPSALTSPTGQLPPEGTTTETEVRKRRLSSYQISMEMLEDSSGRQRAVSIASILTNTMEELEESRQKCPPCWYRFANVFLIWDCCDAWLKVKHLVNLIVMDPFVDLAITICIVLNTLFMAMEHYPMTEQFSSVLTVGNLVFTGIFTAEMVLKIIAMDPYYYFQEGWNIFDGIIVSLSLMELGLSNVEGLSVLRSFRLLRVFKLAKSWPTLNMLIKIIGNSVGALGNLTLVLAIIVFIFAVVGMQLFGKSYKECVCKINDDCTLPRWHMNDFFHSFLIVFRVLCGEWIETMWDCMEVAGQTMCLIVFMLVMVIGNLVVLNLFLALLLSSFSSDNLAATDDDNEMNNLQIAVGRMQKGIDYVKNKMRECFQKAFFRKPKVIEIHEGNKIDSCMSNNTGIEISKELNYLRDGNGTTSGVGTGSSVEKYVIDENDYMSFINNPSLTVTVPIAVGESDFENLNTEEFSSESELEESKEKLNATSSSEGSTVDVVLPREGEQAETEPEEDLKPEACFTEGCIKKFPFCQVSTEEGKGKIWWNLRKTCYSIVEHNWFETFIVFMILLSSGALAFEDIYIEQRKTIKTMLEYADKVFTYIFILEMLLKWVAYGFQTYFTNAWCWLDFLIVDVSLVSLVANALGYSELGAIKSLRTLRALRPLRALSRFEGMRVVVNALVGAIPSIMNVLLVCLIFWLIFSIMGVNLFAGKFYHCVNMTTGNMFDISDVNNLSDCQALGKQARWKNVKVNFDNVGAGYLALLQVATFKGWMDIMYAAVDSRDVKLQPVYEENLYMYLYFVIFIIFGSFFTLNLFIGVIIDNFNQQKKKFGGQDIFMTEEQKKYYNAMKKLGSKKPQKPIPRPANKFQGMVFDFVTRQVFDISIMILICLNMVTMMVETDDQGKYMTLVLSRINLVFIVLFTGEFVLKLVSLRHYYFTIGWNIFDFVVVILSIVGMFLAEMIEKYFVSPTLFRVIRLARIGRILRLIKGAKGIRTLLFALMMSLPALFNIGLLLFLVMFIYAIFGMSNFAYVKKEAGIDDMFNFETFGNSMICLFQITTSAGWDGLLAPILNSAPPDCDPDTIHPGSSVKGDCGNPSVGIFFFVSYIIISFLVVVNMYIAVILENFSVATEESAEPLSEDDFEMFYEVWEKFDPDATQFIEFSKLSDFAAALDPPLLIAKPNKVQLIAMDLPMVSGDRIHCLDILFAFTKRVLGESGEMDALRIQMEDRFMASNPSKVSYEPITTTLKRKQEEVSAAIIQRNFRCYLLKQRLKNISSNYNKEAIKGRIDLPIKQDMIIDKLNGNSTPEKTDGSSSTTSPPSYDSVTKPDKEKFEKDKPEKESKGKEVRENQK
hNav1.5, sequence (Q14524 whole entry, looked up): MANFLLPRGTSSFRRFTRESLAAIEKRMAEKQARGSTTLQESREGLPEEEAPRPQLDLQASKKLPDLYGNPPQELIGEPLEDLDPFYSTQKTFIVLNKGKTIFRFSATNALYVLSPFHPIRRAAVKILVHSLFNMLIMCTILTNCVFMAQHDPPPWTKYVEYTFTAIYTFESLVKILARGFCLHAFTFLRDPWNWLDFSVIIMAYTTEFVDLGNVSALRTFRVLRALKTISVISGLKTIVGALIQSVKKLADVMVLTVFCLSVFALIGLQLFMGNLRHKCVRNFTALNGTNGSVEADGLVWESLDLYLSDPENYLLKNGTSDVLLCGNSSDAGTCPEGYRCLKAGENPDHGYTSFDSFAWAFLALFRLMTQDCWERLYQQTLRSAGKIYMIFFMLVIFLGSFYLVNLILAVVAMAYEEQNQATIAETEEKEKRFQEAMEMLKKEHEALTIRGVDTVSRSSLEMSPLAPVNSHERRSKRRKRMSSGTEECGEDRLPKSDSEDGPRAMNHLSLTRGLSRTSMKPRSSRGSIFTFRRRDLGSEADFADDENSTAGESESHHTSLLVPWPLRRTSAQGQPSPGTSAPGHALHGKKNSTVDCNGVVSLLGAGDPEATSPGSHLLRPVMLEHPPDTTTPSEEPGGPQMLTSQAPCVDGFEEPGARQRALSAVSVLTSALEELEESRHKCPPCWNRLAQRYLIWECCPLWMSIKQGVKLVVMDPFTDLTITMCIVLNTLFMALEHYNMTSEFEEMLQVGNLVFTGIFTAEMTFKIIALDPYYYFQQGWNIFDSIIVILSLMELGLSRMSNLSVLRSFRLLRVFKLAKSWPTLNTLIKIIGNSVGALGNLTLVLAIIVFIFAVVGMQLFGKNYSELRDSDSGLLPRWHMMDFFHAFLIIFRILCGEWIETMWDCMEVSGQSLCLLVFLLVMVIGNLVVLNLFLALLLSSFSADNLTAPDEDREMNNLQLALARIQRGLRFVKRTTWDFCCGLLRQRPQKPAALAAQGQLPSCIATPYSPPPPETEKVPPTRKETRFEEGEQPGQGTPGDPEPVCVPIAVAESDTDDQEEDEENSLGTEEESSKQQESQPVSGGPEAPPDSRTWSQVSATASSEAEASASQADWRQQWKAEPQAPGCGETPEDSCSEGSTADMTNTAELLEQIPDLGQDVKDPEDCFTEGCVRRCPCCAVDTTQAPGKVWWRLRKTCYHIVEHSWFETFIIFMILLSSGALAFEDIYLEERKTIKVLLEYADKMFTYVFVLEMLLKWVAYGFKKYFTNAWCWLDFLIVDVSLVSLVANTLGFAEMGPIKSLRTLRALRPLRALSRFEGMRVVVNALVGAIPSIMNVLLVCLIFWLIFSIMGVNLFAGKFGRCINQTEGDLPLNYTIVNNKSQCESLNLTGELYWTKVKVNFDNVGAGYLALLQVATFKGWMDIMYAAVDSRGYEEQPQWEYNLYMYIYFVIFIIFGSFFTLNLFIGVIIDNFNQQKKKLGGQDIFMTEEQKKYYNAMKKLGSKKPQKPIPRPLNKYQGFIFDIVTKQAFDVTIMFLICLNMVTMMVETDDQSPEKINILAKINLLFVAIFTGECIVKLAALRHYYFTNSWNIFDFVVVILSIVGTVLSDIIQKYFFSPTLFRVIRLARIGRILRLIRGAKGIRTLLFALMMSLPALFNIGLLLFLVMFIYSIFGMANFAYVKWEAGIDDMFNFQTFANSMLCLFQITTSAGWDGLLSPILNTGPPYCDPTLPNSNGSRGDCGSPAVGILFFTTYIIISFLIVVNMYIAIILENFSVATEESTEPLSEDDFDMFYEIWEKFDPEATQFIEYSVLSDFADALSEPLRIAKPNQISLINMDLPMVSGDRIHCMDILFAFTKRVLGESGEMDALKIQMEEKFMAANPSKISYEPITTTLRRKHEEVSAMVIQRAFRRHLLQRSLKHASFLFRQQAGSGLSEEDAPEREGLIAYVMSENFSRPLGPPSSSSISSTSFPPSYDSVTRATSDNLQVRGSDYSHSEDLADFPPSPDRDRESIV

On to `CC[C@H](C)[C@@H]1NC(=O)[C@@H]2CSSC[C@@H]3NC(=O)[C@H](C(C)C)NC(=O)[C@H](CC(C)C)NC(=O)[C@H](CC(N)=O)NC(=O)[C@@H]4CCCN4C(=O)[C@H](CCCNC(=N)N)NC(=O)[C@H](CSSC[C@H](NC(=O)[C@@H](N)CC(=O)O)C(=O)N[C@@H](CC(C)C)C(=O)NCC(=O)N[C@@H](Cc4ccccc4)C(=O)N[C@@H](CCSC)C(=O)N[C@@H](CCCNC(=N)N)C(=O)N[C@@H](CCCCN)C(=O)N2)NC(=O)[C@H](CSSC[C@@H](C(=O)N[C@@H](CCCCN)C(=O)N[C@@H](Cc2ccc(O)cc2)C(=O)N[C@@H](Cc2ccc(I)cc2)C(=O)N[C@@H](Cc2ccccc2)C(N)=O)NC(=O)[C@H](Cc2c[nH]c4ccccc24)NC(=O)[C@H](CCCCN)NC(=O)[C@H](Cc2c[nH]cn2)NC(=O)[C@H]([C@@H](C)O)NC(=O)[C@H](CCCNC(=N)N)NC(=O)[C@H](CO)NC3=O)NC(=O)[C@H](CCCCN)NC(=O)[C@H](CC(=O)O)NC(=O)[C@H](CC(N)=O)NC(=O)[C@H](CC(=O)O)NC(=O)[C@@H]2CCCN2C1=O` [[pI-Phe33]GpTx-1(1-34)] (H-DCLGFMRKCIPDNDKCCRPNLVCSRTHKWCKY[Phe(4-I)]F-NH2; disulfide 2-17, 9-23, 16-30), for which the IC50 was found to be 10.4 µM against hNav1.5, 0.035 µM against hNav1.3 and 0.026 µM against hNav1.7.

In the case of `CC[C@H](C)[C@@H]1NC(=O)[C@@H]2CSSC[C@@H]3NC(=O)[C@H](C(C)C)NC(=O)[C@H](CC(C)C)NC(=O)[C@H](CC(N)=O)NC(=O)[C@@H]4CCCN4C(=O)[C@H](CCCNC(=N)N)NC(=O)[C@H](CSSC[C@H](NC(=O)[C@@H](N)CC(=O)O)C(=O)N[C@@H](CC(C)C)C(=O)NCC(=O)N[C@@H](C)C(=O)N[C@@H](CCSC)C(=O)N[C@@H](CCCNC(=N)N)C(=O)N[C@@H](CCCCN)C(=O)N2)NC(=O)[C@H](CSSC[C@@H](C(=O)N[C@@H](CCCCN)C(=O)N[C@@H](Cc2ccc(O)cc2)C(=O)N[C@@H](Cc2cccc4ccccc24)C(=O)N[C@@H](Cc2ccccc2)C(N)=O)NC(=O)[C@H](Cc2c[nH]c4ccccc24)NC(=O)[C@H](CCCCN)NC(=O)[C@H](Cc2c[nH]cn2)NC(=O)[C@H]([C@@H](C)O)NC(=O)[C@H](CCCNC(=N)N)NC(=O)[C@H](CO)NC3=O)NC(=O)[C@H](CCCCN)NC(=O)[C@H](CC(=O)O)NC(=O)[C@H](CC(N)=O)NC(=O)[C@H](CC(=O)O)NC(=O)[C@@H]2CCCN2C1=O` [[Ala5;1-Nal33]GpTx-1(1-34)] (H-DCLGAMRKCIPDNDKCCRPNLVCSRTHKWCKY[1Nal]F-NH2; disulfide 2-17, 9-23, 16-30), the half-inhibitory concentration (IC50) on hNav1.5 was over 10 µM; on hNav1.3, 0.201 µM; at hNav1.7, 0.048 µM.

Take `CC[C@H](C)[C@@H]1NC(=O)[C@@H]2CSSC[C@@H]3NC(=O)[C@H](C(C)C)NC(=O)[C@H](CC(C)C)NC(=O)[C@H](CC(N)=O)NC(=O)[C@@H]4CCCN4C(=O)[C@H](CCCNC(=N)N)NC(=O)[C@H](CSSC[C@H](NC(=O)[C@@H](N)CC(=O)O)C(=O)N[C@@H](CC(C)C)C(=O)NCC(=O)N[C@@H](Cc4ccccc4)C(=O)N[C@@H](CCSC)C(=O)N[C@@H](CCCNC(=N)N)C(=O)N[C@@H](CCCCN)C(=O)N2)NC(=O)[C@H](CSSC[C@@H](C(=O)N[C@@H](CCCCN)C(=O)N[C@@H](Cc2ccc(O)cc2)C(=O)N[C@H](C(=O)N[C@@H](Cc2ccccc2)C(=O)N[C@@H](Cc2c[nH]c4ccccc24)C(N)=O)C(C)C)NC(=O)[C@H](Cc2c[nH]c4ccccc24)NC(=O)[C@H](CCCCN)NC(=O)[C@H](Cc2c[nH]cn2)NC(=O)[C@H]([C@@H](C)O)NC(=O)[C@H](CCCNC(=N)N)NC(=O)[C@H](CO)NC3=O)NC(=O)[C@H](CCCCN)NC(=O)[C@H](CC(=O)O)NC(=O)[C@H](CC(N)=O)NC(=O)[C@H](CC(=O)O)NC(=O)[C@@H]2CCCN2C1=O` [GpTx-1(1-34)-Trp]: the IC50 against hNav1.5 stood at 2.66 µM; against hNav1.3, 0.015 µM; against hNav1.7, 0.009 µM.

On to `CC[C@H](C)[C@@H]1NC(=O)[C@@H]2CSSC[C@@H]3NC(=O)[C@H](C(C)C)NC(=O)[C@H](CC(C)C)NC(=O)[C@H](CC(N)=O)NC(=O)[C@@H]4CCCN4C(=O)[C@H](CCCNC(=N)N)NC(=O)[C@H](CSSC[C@H](NC(=O)[C@@H](N)CC(=O)O)C(=O)N[C@@H](CC(C)C)C(=O)NCC(=O)N[C@@H](C)C(=O)N[C@@H](CCSC)C(=O)N[C@@H](CCCNC(=N)N)C(=O)N[C@@H](CCCCN)C(=O)N2)NC(=O)[C@H](CSSC[C@@H](C(=O)N[C@@H](CCCCN)C(=O)N[C@@H](Cc2ccc(O)cc2)C(=O)N[C@@H](Cc2c[nH]c4ccccc24)C(=O)N[C@@H](Cc2ccccc2)C(N)=O)NC(=O)[C@H](Cc2c[nH]c4ccccc24)NC(=O)[C@H](CCCCN)NC(=O)[C@H](Cc2c[nH]cn2)NC(=O)[C@H]([C@@H](C)O)NC(=O)[C@H](CCCNC(=N)N)NC(=O)[C@H](CO)NC3=O)NC(=O)[C@H](CCCCN)NC(=O)[C@H](CC(=O)O)NC(=O)[C@H](CC(N)=O)NC(=O)[C@H](CC(=O)O)NC(=O)[C@@H]2CCCN2C1=O` [[Ala5;Trp33]GpTx-1(1-34)] (H-DCLGAMRKCIPDNDKCCRPNLVCSRTHKWCKYWF-NH2; disulfide 2-17, 9-23, 16-30), for which the results for the 50% inhibitory concentration (IC50) against hNav1.5, at hNav1.3 and against hNav1.7 were over 10 µM, 0.569 µM and 0.034 µM, respectively.

Consider `CC[C@H](C)[C@@H]1NC(=O)[C@@H]2CSSC[C@@H]3NC(=O)[C@H](C(C)C)NC(=O)[C@H](CC(C)C)NC(=O)[C@H](CC(N)=O)NC(=O)[C@@H]4CCCN4C(=O)[C@H](CCCNC(=N)N)NC(=O)[C@H](CSSC[C@H](NC(=O)[C@@H](N)CC(=O)O)C(=O)N[C@@H](CC(C)C)C(=O)NCC(=O)N[C@@H](Cc4ccccc4)C(=O)N[C@@H](CCSC)C(=O)N[C@@H](CCCNC(=N)N)C(=O)N[C@@H](CCCCN)C(=O)N2)NC(=O)[C@H](CSSC[C@@H](C(=O)N[C@@H](CCCCN)C(=O)N[C@@H](Cc2cccc4ccccc24)C(=O)N[C@H](C(=O)N[C@@H](Cc2ccccc2)C(N)=O)C(C)C)NC(=O)[C@H](Cc2c[nH]c4ccccc24)NC(=O)[C@H](CCCNC(=N)N)NC(=O)[C@H](Cc2c[nH]cn2)NC(=O)[C@H]([C@@H](C)O)NC(=O)[C@H](CCCNC(=N)N)NC(=O)[C@H](CO)NC3=O)NC(=O)[C@H](CCCCN)NC(=O)[C@H](CC(=O)O)NC(=O)[C@H](CC(N)=O)NC(=O)[C@H](CC(=O)O)NC(=O)[C@@H]2CCCN2C1=O` [[Arg28;1-Nal32]GpTx-1(1-34)] (H-DCLGFMRKCIPDNDKCCRPNLVCSRTHRWCK[1Nal]VF-NH2; disulfide 2-17, 9-23, 16-30), for which the results for the IC50 on hNav1.5, against hNav1.3 and on hNav1.7 were 1.06 µM, 0.006 µM and 0.005 µM, respectively.

For orientation: IC50 means the point on the concentration scale where inhibition reaches its midpoint. Low readings indicate greater potency in that assay, high ones weaker potency in that assay.

Values taken from US9340590B2 (priority 2011, dated 2016).
